Columns and labels:
[1] = biological target: Delta-type opioid receptor (Mus musculus, UniProt P32300); assay: inhibition of [3H]DADLE binding to delta-opioid receptor of mouse brain homogenates
Mu-type opioid receptor = Mu-type opioid receptor (Mus musculus, UniProt P42866); assay: Inhibition of [3H]DAMGO from mouse brain homogenate Mu opioid receptor
[2] = biological target: Kappa-type opioid receptor (Mus musculus, UniProt P33534); assay: Binding affinity against Kappa opioid receptor using [3H]U-69593 radioligand in mouse brain homogenates; type: tissue-based
Chain of Kappa-type opioid receptor (P33534 whole entry): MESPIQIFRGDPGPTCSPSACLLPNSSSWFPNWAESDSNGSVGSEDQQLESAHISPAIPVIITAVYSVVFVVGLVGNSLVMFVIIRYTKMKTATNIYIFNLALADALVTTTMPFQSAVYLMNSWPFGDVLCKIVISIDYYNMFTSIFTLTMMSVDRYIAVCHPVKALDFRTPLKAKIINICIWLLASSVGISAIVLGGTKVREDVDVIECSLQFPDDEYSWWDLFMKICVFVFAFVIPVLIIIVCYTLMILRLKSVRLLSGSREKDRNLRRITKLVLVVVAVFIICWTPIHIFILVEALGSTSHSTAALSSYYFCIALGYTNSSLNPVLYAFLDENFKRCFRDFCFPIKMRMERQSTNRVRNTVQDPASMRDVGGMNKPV

Chain of Mu-type opioid receptor (P42866 whole entry): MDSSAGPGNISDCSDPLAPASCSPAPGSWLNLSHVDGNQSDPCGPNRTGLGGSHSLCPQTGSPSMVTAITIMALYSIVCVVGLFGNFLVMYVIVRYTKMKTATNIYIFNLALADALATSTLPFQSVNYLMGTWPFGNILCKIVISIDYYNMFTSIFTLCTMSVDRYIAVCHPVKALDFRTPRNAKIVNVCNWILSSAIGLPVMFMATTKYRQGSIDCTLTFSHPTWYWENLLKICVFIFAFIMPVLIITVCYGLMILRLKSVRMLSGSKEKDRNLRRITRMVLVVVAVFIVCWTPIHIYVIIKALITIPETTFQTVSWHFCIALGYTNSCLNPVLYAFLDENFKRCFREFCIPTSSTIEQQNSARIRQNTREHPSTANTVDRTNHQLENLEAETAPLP
Chain of Delta-type opioid receptor (P32300 whole entry): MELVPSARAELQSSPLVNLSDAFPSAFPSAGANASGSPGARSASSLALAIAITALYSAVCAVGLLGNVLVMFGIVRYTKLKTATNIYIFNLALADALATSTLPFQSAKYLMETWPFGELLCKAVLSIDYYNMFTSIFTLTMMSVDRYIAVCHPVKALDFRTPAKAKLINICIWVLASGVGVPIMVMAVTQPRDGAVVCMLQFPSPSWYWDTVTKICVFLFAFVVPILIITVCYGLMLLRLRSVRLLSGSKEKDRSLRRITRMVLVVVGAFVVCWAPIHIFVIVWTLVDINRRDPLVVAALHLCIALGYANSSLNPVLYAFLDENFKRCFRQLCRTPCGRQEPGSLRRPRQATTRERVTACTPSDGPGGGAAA

`CCN1CC[C@]2(c3cccc(O)c3)Cc3[nH]c(C(=O)N(CC)CC)c(C)c3C[C@H]2C1` was tested, and the Ki [1] was 0.95 nM.
`CCN1CC[C@]2(c3cccc(O)c3)Cc3[nH]c(C(=O)N(C(C)C)C(C)C)c(C)c3C[C@H]2C1` was tested, and the Ki (Mu-type opioid receptor) was 57.9 nM, the Ki [2] was > 1000 nM and the Ki [1] was 2.6 nM.
`CCN1CC[C@]2(c3cccc(O)c3)Cc3c([nH]c(C(=S)N(CC)CC)c3C)C[C@H]2C1` showed a Ki (Mu-type opioid receptor) of 42 nM, a Ki [2] of 449 nM and a Ki [1] of 1.5 nM.
For `CCN1CC[C@]2(c3cccc(O)c3)Cc3[nH]c(C(=O)N(C)C)c(C)c3C[C@H]2C1`, the Ki (Mu-type opioid receptor) was 580 nM, the Ki [2] was > 1000 nM and the Ki [1] was 6.8 nM.
`CCN(CC)C(=O)c1[nH]c2c(c1C)C[C@@]1(c3cccc(O)c3)CCN(C)C[C@@H]1C2` was tested, and the Ki (Mu-type opioid receptor) was 89.4 nM, the Ki [2] was > 1000 nM and the Ki [1] was 3 nM.
`CCOC(=O)c1[nH]c2c(c1C)C[C@@]1(c3cccc(O)c3)CCN(CC)C[C@@H]1C2` showed a Ki (Mu-type opioid receptor) of 141 nM, a Ki [2] of 169 nM and a Ki [1] of 2.4 nM.
`CN1CC[C@]2(c3cccc(O)c3)Cc3nc4ccccc4cc3C[C@H]2C1` gave a Ki (Mu-type opioid receptor) of 59.6 nM, a Ki [2] of 312 nM and a Ki [1] of 0.23 nM.
`CCN1CC[C@]2(c3cccc(O)c3)Cc3[nH]c(C(N)=O)c(C)c3C[C@H]2C1` showed a Ki (Mu-type opioid receptor) of 139 nM, a Ki [2] of 70.4 nM and a Ki [1] of 15.1 nM.

— ChEMBL document CHEMBL1152046, “Pyrrolooctahydroisoquinolines as potent and selective opioid receptor ligands: SAR analysis and docking studies” (Bioorg Med Chem Lett, 1997)
